{"source": "patent US11040958B2", "about": "“Triazole antimicrobial derivative, pharmaceutical composition and use thereof” (priority 2017, dated 2021)", "key": {"[1]": {"assay": "In vitro metabolic stability in human plasma", "format": "in vitro ADME", "settings": "human, plasma; 37°C, compound 10 μM; read-out: Human plasma T1/2"}, "[2]": {"system": "Candida albicans ATCC10231", "assay": "Systemic fungal infection in mice, intravenous administration, survival", "format": "in vivo", "settings": "ICR mice, tail vein, 5 mg/kg (calculated as voriconazole) once daily for 5 days", "outline": "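Male ICR mice (18-22 g) infected via tail vein with C. albicans ATCC10231 at 5*10^6 cells/ml, 0.1 ml/10 g; groups of 10. From 2 h post-infection, 5 mg/kg (as voriconazole) given i.v. once daily for 5 days, saline vehicle (voriconazole in sulfobutyl ether-β-cyclodextrin); survival time recorded over 7 days.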"}}}
{"smiles": "CC(OC(=O)SCCO)[n+]1cnn(C[C@](O)(c2ccc(F)cc2F)[C@@H](C)c2ncncc2F)c1", "note": "(stereo partly shown) [Compound 16037]", "values": [{"measurement": "half-life at 10 µM", "setting": "[1]", "value": "7.75 ± 0.56", "unit": "min"}, {"measurement": "survival rate of mice, day 1", "setting": "[2]; day 1", "value": 100, "unit": "%"}, {"measurement": "survival rate of mice, day 2", "setting": "[2]; day 2", "value": 100, "unit": "%"}, {"measurement": "survival rate of mice, day 3", "setting": "[2]; day 3", "value": 90, "unit": "%"}, {"measurement": "survival rate of mice, day 4", "setting": "[2]; day 4", "value": 90, "unit": "%"}, {"measurement": "survival rate of mice, day 5", "setting": "[2]; day 5", "value": 90, "unit": "%"}, {"measurement": "survival rate of mice, day 6", "setting": "[2]; day 6", "value": 80, "unit": "%"}]}
